Experiment [1] deals with T1, Aryl hydrocarbon receptor (Homo sapiens, UniProt P35869).
T1 sequence (P35869 whole entry): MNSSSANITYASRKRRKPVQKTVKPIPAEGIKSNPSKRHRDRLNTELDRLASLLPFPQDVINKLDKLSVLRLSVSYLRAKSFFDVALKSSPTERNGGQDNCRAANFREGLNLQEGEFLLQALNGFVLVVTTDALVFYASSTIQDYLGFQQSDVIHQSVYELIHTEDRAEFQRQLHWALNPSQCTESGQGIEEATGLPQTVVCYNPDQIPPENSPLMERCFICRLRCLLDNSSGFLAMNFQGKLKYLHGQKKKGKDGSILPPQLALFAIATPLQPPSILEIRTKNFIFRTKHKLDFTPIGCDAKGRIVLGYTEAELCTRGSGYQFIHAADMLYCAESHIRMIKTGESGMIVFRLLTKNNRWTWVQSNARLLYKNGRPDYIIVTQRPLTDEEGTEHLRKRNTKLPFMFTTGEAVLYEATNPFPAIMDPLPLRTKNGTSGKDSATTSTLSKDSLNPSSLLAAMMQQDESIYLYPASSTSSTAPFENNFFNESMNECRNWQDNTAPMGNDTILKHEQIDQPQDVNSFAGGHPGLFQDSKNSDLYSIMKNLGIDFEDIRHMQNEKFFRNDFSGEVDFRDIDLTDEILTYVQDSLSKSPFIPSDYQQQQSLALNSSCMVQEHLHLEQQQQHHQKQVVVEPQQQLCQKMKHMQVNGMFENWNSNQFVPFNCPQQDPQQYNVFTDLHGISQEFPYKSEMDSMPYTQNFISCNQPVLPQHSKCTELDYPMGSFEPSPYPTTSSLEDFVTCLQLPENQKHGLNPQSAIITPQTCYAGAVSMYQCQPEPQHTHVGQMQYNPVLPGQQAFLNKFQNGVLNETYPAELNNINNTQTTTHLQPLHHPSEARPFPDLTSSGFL
The following applies: Potency.

The target of the next experiment is Melanocortin receptor 4 (Homo sapiens, UniProt P32245). Briefly: inhibitors of MC4R cAMP signaling – cell-based, TR-FRET, biased antagonists, dose response (AID 602298).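 Also: antagonist potency against agonist-stimulated cAMP production.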 Format: functional. A general note: Time-resolved FRET reads energy transfer from a long-lived donor to a nearby acceptor.
Chain of Melanocortin receptor 4 (P32245 whole entry): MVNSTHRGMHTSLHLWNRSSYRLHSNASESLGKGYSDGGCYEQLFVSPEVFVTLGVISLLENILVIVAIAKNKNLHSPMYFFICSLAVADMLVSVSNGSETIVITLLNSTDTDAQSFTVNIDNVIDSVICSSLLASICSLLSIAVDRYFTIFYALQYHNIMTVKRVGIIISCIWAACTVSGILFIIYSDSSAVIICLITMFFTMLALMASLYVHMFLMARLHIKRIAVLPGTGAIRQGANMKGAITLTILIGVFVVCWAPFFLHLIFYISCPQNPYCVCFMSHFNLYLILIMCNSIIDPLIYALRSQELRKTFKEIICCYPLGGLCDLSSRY
In experiment [2] the target is Peroxisome proliferator-activated receptor gamma/Nuclear receptor coactivator 1 (Homo sapiens, UniProt P37231). As to the kind of experiment: TR-FRET dose response biochemical High Throughput Screening assay for agonists of the steroid receptor coactivator 1 (SRC-1) recruitment by the peroxisome proliferator-activated receptor gamma (PPAR gamma): non-selective agonists. [Related pubchem assays (depositor defined):AID1300, AID1808, AID504735, AID631]. In kind it is protein assay.
Chain of Peroxisome proliferator-activated receptor gamma/Nuclear receptor coactivator 1 (P37231 whole entry): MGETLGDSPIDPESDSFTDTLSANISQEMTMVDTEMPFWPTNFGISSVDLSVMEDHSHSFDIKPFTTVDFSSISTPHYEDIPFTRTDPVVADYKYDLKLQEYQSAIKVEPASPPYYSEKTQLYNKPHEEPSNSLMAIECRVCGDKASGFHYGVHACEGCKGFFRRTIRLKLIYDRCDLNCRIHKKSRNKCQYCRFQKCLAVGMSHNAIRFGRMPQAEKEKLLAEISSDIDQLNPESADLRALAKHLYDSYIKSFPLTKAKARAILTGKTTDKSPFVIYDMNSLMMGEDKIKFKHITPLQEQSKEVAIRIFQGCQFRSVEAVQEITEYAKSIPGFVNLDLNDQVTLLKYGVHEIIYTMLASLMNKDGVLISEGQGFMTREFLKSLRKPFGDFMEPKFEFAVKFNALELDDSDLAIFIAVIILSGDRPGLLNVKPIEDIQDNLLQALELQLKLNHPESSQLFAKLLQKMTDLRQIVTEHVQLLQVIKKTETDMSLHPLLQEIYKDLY
Chain of Peroxisome proliferator-activated receptor gamma/Nuclear receptor coactivator 1 (Q15788 whole entry, further chain): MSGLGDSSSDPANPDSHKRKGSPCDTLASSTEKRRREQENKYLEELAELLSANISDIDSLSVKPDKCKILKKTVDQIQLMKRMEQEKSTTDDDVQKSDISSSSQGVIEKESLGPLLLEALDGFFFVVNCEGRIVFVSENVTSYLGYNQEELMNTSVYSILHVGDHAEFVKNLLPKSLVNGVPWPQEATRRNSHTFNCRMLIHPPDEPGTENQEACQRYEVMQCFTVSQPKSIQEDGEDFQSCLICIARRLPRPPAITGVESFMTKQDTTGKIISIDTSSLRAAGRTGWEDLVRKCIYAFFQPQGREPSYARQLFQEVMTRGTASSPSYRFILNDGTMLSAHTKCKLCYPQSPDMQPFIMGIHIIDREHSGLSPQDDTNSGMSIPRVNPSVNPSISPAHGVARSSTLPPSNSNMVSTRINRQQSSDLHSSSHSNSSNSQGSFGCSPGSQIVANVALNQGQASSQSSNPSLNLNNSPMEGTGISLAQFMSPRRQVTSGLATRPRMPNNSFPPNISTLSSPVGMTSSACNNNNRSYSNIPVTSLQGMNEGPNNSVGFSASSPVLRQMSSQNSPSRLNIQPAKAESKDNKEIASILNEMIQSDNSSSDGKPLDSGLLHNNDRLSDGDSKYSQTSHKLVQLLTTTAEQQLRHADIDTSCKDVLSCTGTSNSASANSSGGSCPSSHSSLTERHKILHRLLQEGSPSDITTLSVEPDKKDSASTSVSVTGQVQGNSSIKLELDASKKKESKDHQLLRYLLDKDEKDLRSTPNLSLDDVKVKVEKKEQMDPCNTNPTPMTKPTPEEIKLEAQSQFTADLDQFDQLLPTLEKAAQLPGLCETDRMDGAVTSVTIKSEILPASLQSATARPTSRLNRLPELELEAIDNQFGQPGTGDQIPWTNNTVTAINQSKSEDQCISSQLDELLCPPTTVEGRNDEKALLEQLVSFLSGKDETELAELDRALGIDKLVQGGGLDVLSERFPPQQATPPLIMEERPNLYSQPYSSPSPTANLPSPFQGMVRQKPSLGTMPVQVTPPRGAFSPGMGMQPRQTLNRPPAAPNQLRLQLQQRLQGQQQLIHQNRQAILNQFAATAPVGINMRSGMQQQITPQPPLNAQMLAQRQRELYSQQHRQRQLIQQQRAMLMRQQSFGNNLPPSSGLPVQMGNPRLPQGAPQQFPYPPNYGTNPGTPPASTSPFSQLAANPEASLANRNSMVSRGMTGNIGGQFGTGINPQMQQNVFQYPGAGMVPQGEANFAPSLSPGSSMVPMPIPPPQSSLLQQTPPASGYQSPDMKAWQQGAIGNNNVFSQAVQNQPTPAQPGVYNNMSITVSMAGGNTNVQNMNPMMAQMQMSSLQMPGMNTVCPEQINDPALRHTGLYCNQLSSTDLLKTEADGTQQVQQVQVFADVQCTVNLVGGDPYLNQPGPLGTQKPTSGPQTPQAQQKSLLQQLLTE

Experiment [3] can be described thus: cAMP pathway inhibition in counterscreen cell line – TR-FRET cAMP detection, counter-screen for MC4R biased antagonist project, dose response (AID 602305).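 Also: U2OS cells stimulated with forskolin near its EC80 as the cAMP inducer; potency is for inhibition of forskolin-stimulated cAMP signaling.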 Format: functional, cell-based.
Experiment [4] concerns the target Peroxisome proliferator-activated receptor gamma/Nuclear receptor coactivator 3 (Homo sapiens, UniProt P37231). As to the kind of experiment: TR-FRET dose response biochemical High Throughput Screening assay for agonists of the steroid receptor coactivator 3 (SRC-3) recruitment by the peroxisome proliferator-activated receptor gamma (PPAR gamma): non-selective agonists. [Related pubchem assays: 1301 (Confirmation screen.), 1048 (Primary screen.)]. In kind it is functional.

Experiment [5] addresses Peroxisome proliferator-activated receptor gamma/Nuclear receptor coactivator 2 (Homo sapiens, UniProt P37231). Briefly: TR-FRET dose response biochemical High Throughput Screening assay for agonists of the steroid receptor coactivator 2 (SRC-2) recruitment by the peroxisome proliferator-activated receptor gamma (PPAR gamma): non-selective agonists. [Related pubchem assays: 1297, 1032 ]. Format: functional.

In experiment [6] the target is T2, Endoribonuclease toxin MazF (Escherichia coli K-12, UniProt P0AE70).
T2 sequence (P0AE70 whole entry): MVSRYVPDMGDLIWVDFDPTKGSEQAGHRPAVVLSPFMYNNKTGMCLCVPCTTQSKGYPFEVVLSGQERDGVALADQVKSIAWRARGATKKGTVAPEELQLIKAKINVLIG
As to the kind of experiment: substrate-only fluorescence increase artefacts – biochemical, single-stranded RNase substrate, counter-screen for MazEF activator project, dose response (AID 588502). Format: functional. For orientation: A counterscreen serves to expose hits that act by an unwanted route or on another target.

Experiment [7] concerns the target T2, Endoribonuclease toxin MazF. As to the kind of experiment: activation of MazEF endoribonuclease cleavage – biochemical, fluorescence, single-stranded RNA substrate, uHTS hits, dose response (AID 588481). In kind it is functional.
The target of experiment [8] is DNA (cytosine-5)-methyltransferase 1 (Homo sapiens, UniProt P26358). As to the kind of experiment: inhibition of DNA methylation by DNMT1 – biochemical, fluorescent molecular beacon, confirmation (AID 602386). Format: functional.
Experiment [9] concerns the target T3, Carboxy-terminal domain RNA polymerase II polypeptide A small phosphatase 1 (Homo sapiens, UniProt Q9GZU7).
T3 sequence (Q9GZU7 whole entry): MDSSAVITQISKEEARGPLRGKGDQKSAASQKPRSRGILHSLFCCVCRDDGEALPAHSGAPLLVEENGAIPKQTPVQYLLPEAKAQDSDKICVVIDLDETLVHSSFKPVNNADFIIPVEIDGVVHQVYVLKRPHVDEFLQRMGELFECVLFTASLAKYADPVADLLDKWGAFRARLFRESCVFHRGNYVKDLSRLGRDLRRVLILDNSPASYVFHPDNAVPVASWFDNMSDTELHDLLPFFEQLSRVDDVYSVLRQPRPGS
Briefly: CTDSP1 inhibitors, concentration-response, biochemical, absorbance readout, ultra-high-throughput screen actives (AID 540297). In kind it is functional.

The subject of experiment [10] is HEK293. Briefly: cells. The following applies: Homo sapiens.
The subject of experiment [11] is HEK293. Briefly: cells. The following applies: Homo sapiens. This is another data set of the same source.
A short description of experiment [12]: viability of HCT116 lacking mutant beta-catenin – cell-based, human colon tumor, dose response (AID 1045).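 Also: HCT116 colon tumor cells with beta catenin knocked out; cells exposed to compound for 60 hours.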 In kind it is functional.
The target in experiment [13] is T4, Heat shock factor protein 1 (Mus musculus, UniProt P38532).
T4 sequence (P38532 whole entry): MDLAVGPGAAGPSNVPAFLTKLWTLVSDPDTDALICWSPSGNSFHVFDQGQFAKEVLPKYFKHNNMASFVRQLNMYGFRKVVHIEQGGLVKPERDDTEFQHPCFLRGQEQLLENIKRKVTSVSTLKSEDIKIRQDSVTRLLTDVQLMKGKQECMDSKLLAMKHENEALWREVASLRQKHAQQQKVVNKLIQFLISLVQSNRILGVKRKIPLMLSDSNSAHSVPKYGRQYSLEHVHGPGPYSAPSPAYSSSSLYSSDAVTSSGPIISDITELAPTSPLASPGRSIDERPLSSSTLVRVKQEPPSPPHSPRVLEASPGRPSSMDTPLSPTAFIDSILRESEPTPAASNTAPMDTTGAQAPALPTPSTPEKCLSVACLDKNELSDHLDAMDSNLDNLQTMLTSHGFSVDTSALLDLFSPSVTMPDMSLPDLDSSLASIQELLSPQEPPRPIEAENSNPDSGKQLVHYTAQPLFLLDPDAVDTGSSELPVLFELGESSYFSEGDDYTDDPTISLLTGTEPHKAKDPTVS
Briefly: enhancement of HSF1-driven luciferase signal – cell-based, NIH3T3, luminescence, dose retest, confirmation (AID 435004).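 Also: stress induced by proteasome inhibitor MG132 added 30 min after compound; luciferase reporter driven by HSF1 response element in NIH3T3 cells; actives raise luminescence as potentiators of the MG132 stress response.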 In kind it is functional.

The nature of experiment [14]: viability of PTEN-deleted HCT116 cells – cell-based, HCT116 PTEN knockout, dose response (AID 1047).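 Also: HCT116 colon tumor cells with PTEN knocked out; cells exposed to compound for 60 hours before readout; potency for loss of cell viability measured by luminescence.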 Format: functional.
A short description of experiment [15]: Counterscreen for activators of the function of SWI/SNF related, matrix associated, actin dependent regulator of chromatin, subfamily a, member 2 (SMARCA2, BRM): Luminescence-based cell-based high throughput dose response assay to identify non-selective compounds using the VP16 reporter assay. Format: functional.
Experiment [16] deals with SWI/SNF-related matrix-associated actin-dependent regulator of chromatin subfamily A member 2 (Homo sapiens, UniProt P51531). Briefly: Luminescence-based cell-based high throughput dose response assay to identify activators of the function of SWI/SNF related, matrix associated, actin dependent regulator of chromatin, subfamily a, member 2 (SMARCA2, BRM). Format: functional.
Chain of SWI/SNF-related matrix-associated actin-dependent regulator of chromatin subfamily A member 2 (P51531 whole entry): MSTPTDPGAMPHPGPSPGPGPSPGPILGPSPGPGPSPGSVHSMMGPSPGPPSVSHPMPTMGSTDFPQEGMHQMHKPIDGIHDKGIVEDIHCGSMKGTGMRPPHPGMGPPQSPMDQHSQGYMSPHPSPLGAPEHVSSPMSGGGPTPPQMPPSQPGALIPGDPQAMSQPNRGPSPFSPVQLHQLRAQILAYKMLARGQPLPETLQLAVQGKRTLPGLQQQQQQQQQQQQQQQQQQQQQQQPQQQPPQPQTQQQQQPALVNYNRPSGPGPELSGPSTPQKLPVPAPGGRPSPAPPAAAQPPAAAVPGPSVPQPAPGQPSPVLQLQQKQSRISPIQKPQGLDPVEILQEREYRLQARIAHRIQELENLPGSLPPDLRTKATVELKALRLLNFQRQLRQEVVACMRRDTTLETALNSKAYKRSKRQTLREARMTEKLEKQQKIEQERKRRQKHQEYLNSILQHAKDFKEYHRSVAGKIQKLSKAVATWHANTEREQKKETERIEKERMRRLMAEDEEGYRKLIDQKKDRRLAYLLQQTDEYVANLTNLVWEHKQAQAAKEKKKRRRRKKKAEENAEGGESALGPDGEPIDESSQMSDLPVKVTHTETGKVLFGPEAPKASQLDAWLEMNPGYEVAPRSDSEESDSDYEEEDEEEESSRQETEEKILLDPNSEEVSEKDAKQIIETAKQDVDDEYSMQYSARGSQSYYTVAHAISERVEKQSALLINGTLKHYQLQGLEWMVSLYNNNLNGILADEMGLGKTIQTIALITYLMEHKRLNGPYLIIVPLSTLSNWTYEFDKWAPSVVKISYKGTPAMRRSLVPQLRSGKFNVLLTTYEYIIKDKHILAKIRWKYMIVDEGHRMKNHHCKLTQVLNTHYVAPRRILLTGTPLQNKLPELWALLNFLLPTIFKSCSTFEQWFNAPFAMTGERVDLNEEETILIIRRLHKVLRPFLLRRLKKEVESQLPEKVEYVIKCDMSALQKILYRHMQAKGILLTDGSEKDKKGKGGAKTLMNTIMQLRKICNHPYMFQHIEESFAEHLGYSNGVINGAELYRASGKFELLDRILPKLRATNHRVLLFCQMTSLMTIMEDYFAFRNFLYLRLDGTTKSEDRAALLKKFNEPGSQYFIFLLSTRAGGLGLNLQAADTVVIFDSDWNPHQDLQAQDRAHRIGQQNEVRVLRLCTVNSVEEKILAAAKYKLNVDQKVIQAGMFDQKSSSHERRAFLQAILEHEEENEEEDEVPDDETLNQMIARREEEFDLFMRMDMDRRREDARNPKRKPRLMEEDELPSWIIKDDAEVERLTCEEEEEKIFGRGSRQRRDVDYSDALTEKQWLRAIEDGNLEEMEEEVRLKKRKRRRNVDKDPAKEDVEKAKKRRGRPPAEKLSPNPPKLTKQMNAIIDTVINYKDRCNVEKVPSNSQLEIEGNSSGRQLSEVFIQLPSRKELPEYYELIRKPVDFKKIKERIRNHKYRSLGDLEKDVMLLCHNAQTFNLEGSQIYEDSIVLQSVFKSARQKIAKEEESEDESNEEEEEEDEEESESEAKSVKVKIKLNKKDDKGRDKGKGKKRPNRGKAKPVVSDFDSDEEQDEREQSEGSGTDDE

The source made the active and inactive calls. Some results are limits rather than exact numbers.
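For AC50 in this document: confirmatory quantitative high-throughput screen measuring activation of the AhR signaling pathway.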

The AC50 is the midpoint of the concentration-response curve, whichever way the signal moves. For `N#Cc1ccccc1` [BENZONITRILE], the AC50 in experiment [1] is 7.08 µM (inconclusive).
One may read the IC50 as the point on the concentration scale where inhibition reaches its midpoint. The EC50 is the concentration giving half of the maximal effect. In the case of `O=C(O)c1cc(-c2ccc(Cl)s2)nc2ccccc12`, the IC50 (on Melanocortin receptor 4; in experiment [3]) was > 64.6 µM (inactive) throughout. Further, the EC50 in [2] is 42.7 µM (inactive); in experiment [4] it was > 79.4 µM (not active); in [5], 20.7 µM (not active).
Regarding `COc1ccc(-c2cc(C(=O)Nc3cc(OC)cc(C(=O)Nc4cccc(C(F)(F)F)c4)c3)[nH]n2)cc1`, the IC50 (at Melanocortin receptor 4; in experiment [3]) was > 64.6 µM (inactive) throughout.
For `Cn1c(=O)c2c(ncn2CC(=O)Nc2nc(-c3ccccc3Cl)cs2)n(C)c1=O`, the EC50 in [6] and in experiment [7] was > 99 µM (inactive) each time.
Take `Cc1ccccc1NC(=O)CSc1ccsc1[N+](=O)[O-]`: the half-maximal inhibitory concentration (IC50) was 7.7 µM (active) in experiment [8] and 2.3 µM (active) in experiment [9].
As to `Cc1cccc(C)c1-n1nnnc1SCC(=O)c1c(N)n(C2CC2)c(=O)[nH]c1=O`, the EC50 in experiment [6] and in experiment [7] was > 99 µM (inactive) in each case.
With `CCOC(=O)c1ccc(/N=c2\sc(C(=O)OC)cc(=O)n2Cc2ccco2)cc1`, the EC50 with HEK293 [10] was > 59.6 µM (inactive); with HEK293 [11], > 59.6 µM (inactive); in [12], 5.88 µM (active); in experiment [13], 16.8 µM (active); in [14], 7.5 µM (active). Also, the IC50 was > 7.17 µM (active) on Melanocortin receptor 4 and > 64.5 µM (inactive) in experiment [3].
`CCOc1ccc(NC(=O)CNC(=O)c2nn(-c3ccc(OC)cc3)c(=O)c3ccccc23)cc1`: the figures for the EC50 in experiment [6] and in [7] were > 99 µM (inactive) and 48.2 µM (inactive), respectively.
As to `COCc1cc(O)n2nc(-c3ccc(C)cc3)cc2n1`, the EC50 in [15] and in experiment [16] was > 91.2 µM (inactive) in each case.
`CCOC(=O)c1cnc2ccc(OCC)cc2c1N(C)Cc1ccccc1`: the IC50 (at Melanocortin receptor 4; in [3]) was > 64.6 µM (inactive) each time.
Regarding `C=C1c2ccccc2NC(=O)N1c1ccc(OC)cc1`, the EC50 in experiment [15] and in experiment [16] was > 91.1 µM (inactive) in each case.
